Experimental data published in US20260001928A1 (CORTERIA PHARMACEUTICALS, priority 2022, published 2026).
*1 amine or outer side, *2 acyl side, *3 side chain or, on linkers, in order; H or OH if unused. Where a SMILES comes first, the peptide text is derived from it. Side-chain parts run from the residue outwards. [ ]: non-standard residue; d: D form. The star is where a group is joined. C20 diacid = O=C(O)CCCCCCCCCCCCCCCCCCC(=O)*; C16 diacid = O=C(O)CCCCCCCCCCCCCCC(=O)*; γGlu = O=C(O)[C@H](CCC(=O)[*:2])N[*:1]; NMeI = CC[C@H](C)[C@H](NC)C(=O)O; AEEA = NCCOCCOCC(=O)O; Aib = CC(C)(N)C(=O)O

Tests used:
CFR1R receptor = molecular target: T1, CFR1R receptor (Homo sapiens, UniProt P34998); assay: Activity at anti-target CFR1R receptor, cAMP assay in CRF1R-overexpression CHO-K1 cells; format: cell-based; conditions: 100% = Sauvagine at 100 nM; for EC50: cAMP
T1 construct: host or cells: CHO-K1 (clone 2)
T1 sequence (P34998 24-415): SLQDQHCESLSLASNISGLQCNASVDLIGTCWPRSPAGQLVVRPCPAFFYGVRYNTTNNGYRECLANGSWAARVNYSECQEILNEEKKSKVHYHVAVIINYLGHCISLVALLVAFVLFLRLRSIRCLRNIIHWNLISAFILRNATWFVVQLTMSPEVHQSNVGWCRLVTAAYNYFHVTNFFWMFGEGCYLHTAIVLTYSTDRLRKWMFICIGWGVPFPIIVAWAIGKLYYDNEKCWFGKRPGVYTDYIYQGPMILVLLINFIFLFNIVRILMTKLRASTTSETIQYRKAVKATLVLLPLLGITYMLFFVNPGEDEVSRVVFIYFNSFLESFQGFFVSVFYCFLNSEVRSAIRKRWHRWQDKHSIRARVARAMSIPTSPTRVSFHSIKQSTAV
Summary of the method: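 Run as for the TeloHAEC line, except the full-activation control well received Sauvagine (100 nM) and final density was 4000 cells/well. Cells from clone 2 came from frozen aliquots of near-confluent cultures.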

Sprague Dawley rats = assay: Effect on systolic blood pressure, telemetry in Sprague Dawley rats; format: in vivo, rat; conditions: 0.1 mg/kg SC; for Systolic blood pressure (Mean) % change from baseline, 8 h / Systolic blood pressure (Mean) % change from baseline, 12 h / Systolic blood pressure (Mean) % change from baseline, 24 h: n=2; for Duration of action: last time point with an effect on BP still observed
Summary of the method: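 Sprague Dawley rats with abdominal-aorta telemetry catheters, recovered ≥10 days, received 0.1 mg/kg SC of compound or vehicle. Systolic pressure recorded 1 h pre-dose as baseline, then continuously up to 48 hours, expressed as % change from baseline; duration of action is last time point with a BP effect (n=2).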

[1] = In vitro subcutaneous tissue supernatant (SCts) stability and metabolite identification, rat; format: in vitro ADME; design: remaining at 2 h: dose or concentration left out as unconfirmed; conditions: male, Sprague Dawley; rat subcutaneous tissue supernatant (SCts), 37° C, 2 h
Method: In vitro metabolic stability in subcutaneous tissue supernatant (SCts) was studied in male Sprague Dawley rats. Test compounds were incubated […] for 2 hours at 37° C.
Software aided in vitro metabolite identification on SCts stability samples was performed using either Metabolite Pilot (Sciex) or Biopharma Finder (Thermo). In addition, metabolite identification using Metabolite Pilot was performed on plasma samples of Comp Y following SC administration to rat at 1 mg/kg.

[2] = Chemical stability in buffer (pH 7.4 / pH 4.5), % purity loss; format: physicochemical; conditions: 40° C. vs 5° C., 14 or 28 days; for Buffer stability pH 7.4 % purity loss: 100 mM phosphate buffer pH 7.4
Summary of the method: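 Compounds dissolved at 10 mg/mL target in 100 mM phosphate (pH 7.4) or 100 mM acetate (pH 4.5) buffer for 1 h at room temperature, then centrifuged. Diluted supernatant stored at 5 °C or 40 °C for 14 or 28 days; % purity loss by LC-UV.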

human CRF2a receptor = molecular target: T2, human CRF2a receptor (Homo sapiens, UniProt Q13324); assay: Activity at human CRF2a receptor, cAMP functional assay in TeloHEAC cells; format: cell-based; conditions: TeloHEAC cells stably expressing human CRF2a receptor, relative to urocortin 2 (100 nM = 100%)
T2 construct: expressed in transfected cells; host or cells: TeloHEAC cells
T2 sequence (Q13324 1-411): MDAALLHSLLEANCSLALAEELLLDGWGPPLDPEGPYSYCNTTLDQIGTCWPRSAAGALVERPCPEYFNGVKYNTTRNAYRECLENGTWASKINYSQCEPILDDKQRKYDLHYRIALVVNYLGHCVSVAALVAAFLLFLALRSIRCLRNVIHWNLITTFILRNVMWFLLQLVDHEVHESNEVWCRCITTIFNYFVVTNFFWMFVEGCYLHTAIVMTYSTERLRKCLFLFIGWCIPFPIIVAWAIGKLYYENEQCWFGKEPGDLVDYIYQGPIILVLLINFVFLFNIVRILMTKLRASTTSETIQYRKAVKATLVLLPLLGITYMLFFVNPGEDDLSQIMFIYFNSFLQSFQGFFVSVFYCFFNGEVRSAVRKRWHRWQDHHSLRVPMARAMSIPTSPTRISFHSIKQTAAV
Summary of the method: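 cAMP accumulation was measured by HTRF 665/620 nm ratio after 30 min at 37° C compound exposure (16 twofold dilutions) of CRF2a-expressing TeloHEAC cells, 10000/well, in HEPES-buffered HBSS plus IBMX. Activity was normalised to urocortin 2 at 100 nM (100%), and EC50 was the concentration giving half-maximal activation.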

| Emax (% I) (CFR1R receptor) | EC50 (CFR1R receptor) [nM] | remaining at 2 h [1] [%] | Buffer stability pH 7.4 % purity loss [2] | EC50 (human CRF2a receptor) [nM] | Buffer stability pH 4.5 % purity loss ([2]; 100 mM acetate buffer pH 4.5) | Structure (SMILES) | Systolic blood pressure (Mean) % change from baseline, 8 h (Sprague Dawley rats) [%] | Systolic blood pressure (Mean) % change from baseline, 12 h (Sprague Dawley rats) [%] | Systolic blood pressure (Mean) % change from baseline, 24 h (Sprague Dawley rats) [%] | Duration of action (Sprague Dawley rats) [h] |
| --- | --- | --- | --- | --- | --- | --- | --- | --- | --- | --- |
| 0 | > 250 | 79 | 0/nd ^ % | 0.25 |  | CC[C@H](C)[C@H](NC(C)=O)C(=O)N[C@H](C(=O)N[C@@H](CC(C)C)C(=O)N[C@@H](CO)C(=O)N[C@@H](CC(C)C)C(=O)N[C@@H](CC(=O)O)C(=O)N[C@@H](C(=O)N1CCC[C@H]1C(=O)N[C@H](C(=O)N[C@@H](CCCCN)C(=O)N[C@@H](CC(C)C)C(=O)N[C@@H](CCCCNC(=O)CC[C@H](NC(=O)CCCCCCCCCCCCCCC(=O)O)C(=O)O)C(=O)N[C@@H](CCCCN)C(=O)N[C@H](C(=O)N[C@@H](CC(C)C)C(=O)N[C@@H](CC(C)C)C(=O)N[C@@H](CCC(=O)O)C(=O)N[C@@H](CCC(N)=O)C(=O)N[C@@H](CCC(=O)O)C(=O)N[C@@H](CCCCN)C(=O)N[C@@H](CCC(N)=O)C(=O)N[C@@H](CCCCN)C(=O)N[C@@H](CCCCN)C(=O)N[C@@H](CCC(N)=O)C(=O)N[C@@H](CCCNC(=N)N)C(=O)N[C@@H](CCC(=O)O)C(=O)N[C@@H](CCC(N)=O)C(=O)N[C@@H](C)C(=O)N[C@@H](CCC(=O)O)C(=O)N[C@H](C(=O)N[C@@H](CC(N)=O)C(=O)NC(C)(C)C(=O)N[C@@H](CCC(N)=O)C(=O)N[C@H](C(=O)N[C@@H](CC(C)C)C(=O)N[C@@H](C)C(=O)N[C@@H](CCC(N)=O)C(=O)N[C@H](C(N)=O)C(C)C)[C@@H](C)CC)[C@@H](C)O)[C@@H](C)CC)[C@@H](C)CC)C(C)C)C(C)C [compound 40] (Ac-IVLSLD[dV]PIKLK([γGlu-C16 diacid])KILLEQEKQKKQREQAETN[Aib]QILAQV-NH2) | −30 | −18 | 7 | 23 |
| 14 | > 250 | 72 | 0.0/Not Tested % | 0.64 |  | CC[C@H](C)[C@H](NC(C)=O)C(=O)N[C@H](C(=O)N[C@@H](CC(C)C)C(=O)N[C@@H](CO)C(=O)N[C@@H](CC(C)C)C(=O)N[C@@H](CC(=O)O)C(=O)N[C@@H](C(=O)N1CCC[C@H]1C(=O)N[C@H](C(=O)N[C@@H](CCCCN)C(=O)N[C@@H](CC(C)C)C(=O)N[C@@H](CCCCNC(=O)CC[C@H](NC(=O)CCCCCCCCCCCCCCC(=O)O)C(=O)O)C(=O)N[C@@H](CCCCN)C(=O)N[C@H](C(=O)N[C@@H](CC(C)C)C(=O)N[C@@H](CC(C)C)C(=O)N[C@@H](CCC(=O)O)C(=O)N[C@@H](CCC(N)=O)C(=O)N[C@@H](CCC(=O)O)C(=O)N[C@@H](C)C(=O)N[C@@H](CCC(N)=O)C(=O)N[C@@H](CCCCN)C(=O)N[C@@H](CCCCN)C(=O)N[C@@H](CCC(N)=O)C(=O)N[C@@H](CCCNC(=N)N)C(=O)N[C@@H](CCC(=O)O)C(=O)N[C@@H](CCC(N)=O)C(=O)N[C@@H](C)C(=O)N[C@@H](CCC(=O)O)C(=O)N[C@H](C(=O)N[C@@H](CC(N)=O)C(=O)NC(C)(C)C(=O)N[C@@H](CCC(N)=O)C(=O)N[C@H](C(=O)N[C@@H](CC(C)C)C(=O)N[C@@H](C)C(=O)N[C@@H](CCC(N)=O)C(=O)N[C@H](C(N)=O)C(C)C)[C@@H](C)CC)[C@@H](C)O)[C@@H](C)CC)[C@@H](C)CC)C(C)C)C(C)C [compound 165] (Ac-IVLSLD[dV]PIKLK([γGlu-C16 diacid])KILLEQEAQKKQREQAETN[Aib]QILAQV-NH2) | −30 | −20 | 2 | 23 |
| 34 | > 250 | 72 | 0.0/0.0 ^ % | 0.12 | 0.0/0.0 ^ % | CC[C@H](C)[C@H](NC)C(=O)N[C@H](C(=O)N[C@@H](CC(C)C)C(=O)N[C@@H](CO)C(=O)N[C@@H](CC(C)C)C(=O)N[C@@H](CC(=O)O)C(=O)N[C@@H](C(=O)N1CCC[C@H]1C(=O)N[C@H](C(=O)N[C@@H](CCCCN)C(=O)N[C@@H](CC(C)C)C(=O)N[C@@H](CCCCNC(=O)CC[C@H](NC(=O)CCCCCCCCCCCCCCCCCCC(=O)O)C(=O)O)C(=O)N[C@@H](CCCCN)C(=O)N[C@H](C(=O)N[C@@H](CC(C)C)C(=O)N[C@@H](CC(C)C)C(=O)N[C@@H](CCC(=O)O)C(=O)N[C@@H](CCC(N)=O)C(=O)N[C@@H](CCC(=O)O)C(=O)N[C@@H](CCCCN)C(=O)N[C@@H](CCC(N)=O)C(=O)N[C@@H](CCCCN)C(=O)N[C@@H](CCCCN)C(=O)N[C@@H](CCC(N)=O)C(=O)N[C@@H](CCCNC(=N)N)C(=O)N[C@@H](CCC(=O)O)C(=O)N[C@@H](CCC(N)=O)C(=O)N[C@@H](C)C(=O)N[C@@H](CCC(=O)O)C(=O)N[C@H](C(=O)N[C@@H](CC(N)=O)C(=O)NC(C)(C)C(=O)N[C@@H](CCC(N)=O)C(=O)N[C@H](C(=O)N[C@@H](CC(C)C)C(=O)N[C@@H](C)C(=O)N[C@@H](CCC(N)=O)C(=O)N[C@H](C(N)=O)C(C)C)[C@@H](C)CC)[C@@H](C)O)[C@@H](C)CC)[C@@H](C)CC)C(C)C)C(C)C [compound 214] (H-[NMeI]VLSLD[dV]PIKLK([γGlu-C20 diacid])KILLEQEKQKKQREQAETN[Aib]QILAQV-NH2) |  |  |  |  |
| 10 | > 250 | 65 | 0.0/Not Tested % | 0.28 |  | CC[C@H](C)[C@H](NC(C)=O)C(=O)N[C@H](C(=O)N[C@@H](CC(C)C)C(=O)N[C@@H](CO)C(=O)N[C@@H](CC(C)C)C(=O)N[C@@H](CC(=O)O)C(=O)N[C@@H](C(=O)N1CCC[C@H]1C(=O)N[C@H](C(=O)N[C@@H](CCCCN)C(=O)N[C@@H](CC(C)C)C(=O)N[C@@H](CCCCNC(=O)COCCOCCNC(=O)CC[C@H](NC(=O)CCCCCCCCCCCCCCCCCCC(=O)O)C(=O)O)C(=O)N[C@@H](CCCCN)C(=O)N[C@H](C(=O)N[C@@H](CC(C)C)C(=O)N[C@@H](CC(C)C)C(=O)N[C@@H](CCC(=O)O)C(=O)N[C@@H](CCC(N)=O)C(=O)N[C@@H](CCC(=O)O)C(=O)N[C@@H](CCCCN)C(=O)N[C@@H](CCC(N)=O)C(=O)N[C@@H](CCCCN)C(=O)N[C@@H](CCC(=O)O)C(=O)N[C@@H](CCC(N)=O)C(=O)N[C@@H](CCCNC(=N)N)C(=O)N[C@@H](CCC(=O)O)C(=O)N[C@@H](CCC(N)=O)C(=O)N[C@@H](C)C(=O)N[C@@H](CCC(=O)O)C(=O)N[C@H](C(=O)N[C@@H](CC(N)=O)C(=O)NC(C)(C)C(=O)N[C@@H](CCC(N)=O)C(=O)N[C@H](C(=O)N[C@@H](CC(C)C)C(=O)N[C@@H](C)C(=O)N[C@@H](CCC(N)=O)C(=O)N[C@H](C(N)=O)C(C)C)[C@@H](C)CC)[C@@H](C)O)[C@@H](C)CC)[C@@H](C)CC)C(C)C)C(C)C [compound 231] (Ac-IVLSLD[dV]PIKLK([AEEA-γGlu-C20 diacid])KILLEQEKQKEQREQAETN[Aib]QILAQV-NH2) | −3 | −3 | −12 | >24 |
